Laboratory results as given in US20190365785A1, “INHIBITION OF UNFOLDED PROTEIN RESPONSE FOR SUPPRESSING OR PREVENTING ALLERGIC REACTION TO FOOD” (Children's Hospital Medical Center, priority 2017, published 2019).

Tests used:
BALB/c mice = experiment: UPR inhibitors in drinking water or oral in mouse model of food (egg) allergy; assay type: in vivo; details: for intestinal UPR-related gene expression (except for BiP and ATF6) / intestinal pro-Th2 cytokine expression: 500 mg/kg/day in drinking water, FIG. 15A-15E; for hypothermia / mouse mast cell protease 1 (MMCP1) response / small intestinal UPR-related gene expression (except ATF6) / small intestinal pro-Th2 cytokine gene expression: mice induced to develop food allergy, 500 mg/kg in drinking water, FIG. 14
Method: BALB/c mice were induced to develop food allergy and were then treated with 500 mg/kg doses of metformin or TUDCA in drinking water.
BALB/c mice with established egg allergy were provided with drinking water that contained 500 mg/kg/day of metformin or TUDCA, or with ordinary drinking water. Both metformin and TUDCA suppressed intestinal UPR-related gene expression (except for BiP and ATF6) and pro-Th2 cytokine expression. Note the large increases in intestinal UPR-associated and pro-Th2 gene expression compared to naïve mice, and the partial suppression of UPR-associated and pro-Th2 genes by metformin and TUDCA (FIG. 15E).
BALB/c mice with established egg allergy were administered egg yolk plasma with or without 1 g/kg/day or 2 g/kg/day of metformin. Pro-Th2 cytokine and UPR-related gene expression was inhibited in skin (FIG. 16A) and lung (FIG. 16B).

CACO-2 cells [1] = experiment: Pro-Th2 cytokine expression by CACO-2 cells cultured with EYP, HC, MCT or sodium palmitate, with or without UPR inhibitors; assay type: cell-based, human
Method: To evaluate whether the UPR induces pro-Th2 gene expression in cultured human intestinal epithelial cells, we evaluated the abilities of three UPR inhibitors to inhibit the ability of egg yolk plasma (EYP), heavy cream (HC), medium chain triglycerides (MCT), or sodium palmitate to induce pro-Th2 cytokine expression by CACO-2 cells. CACO-2 cells were cultured for 24 hours with medium alone, EW, negative control, EYP, HC, MCT, or sodium palmitate (positive control for UPR induction), with or without the UPR inhibitors metformin, TUDCA, or 4-PBA. mRNA was prepared, reverse-transcribed, and quantitated by real time PCR. […] CACO-2 cells were obtained from the American Type Culture Collection (ATCC), catalog number HTB-37. These cells were grown in ATCC-formulated Eagle's Minimum Essential Medium (EMEM) (Cat. No. 30-2003), supplemented with fetal bovine serum (FBS) to a final concentration of 20% (ATCC® Cat. No. 30-2020) and Gibco antibiotic-antimycotic mixture. The cells were cultured in 6-well, 12-well, or 24-well culture plates to approximately 85%-90% confluency. On the day of experiment, EMEM medium was prepared with the appropriate concentrations of stimulants and/or inhibitors and added to the cells. Following the period of culture (usually 6 or 24 hours), the cells were washed and lysed, and total RNA was purified using PureLink™ RNA Mini Kit (Thermo Fisher Cat. No. 12183018A). The purified total RNA was used to generate cDNA using a High-Capacity cDNA Reverse Transcription Kit (Applied Biosystems, Cat. No. 4368814). Gene expression was analyzed using the qPCR method with a BioRad My iQ™ Detection system, and compared to the expression of the GAPDH housekeeping gene.

CACO-2 cells [2] = experiment: CACO-2 cells cultured with egg yolk plasma or peanut extract, with or without lipase inhibitor Orlistat; assay type: cell-based, human; details: 24 hours, FIG. 3
Method: CACO-2 cells were cultured for 24 hours with medium alone, egg yolk plasma, or peanut extract, with or without the lipase inhibitor Orlistat. mRNA was extracted and reverse transcribed, after which UPR-associated gene expression and pro-Th2 cytokine gene expression were determined by real time PCR. […] CACO-2 cells were obtained from the American Type Culture Collection (ATCC), catalog number HTB-37. These cells were grown in ATCC-formulated Eagle's Minimum Essential Medium (EMEM) (Cat. No. 30-2003), supplemented with fetal bovine serum (FBS) to a final concentration of 20% (ATCC® Cat. No. 30-2020) and Gibco antibiotic-antimycotic mixture. The cells were cultured in 6-well, 12-well, or 24-well culture plates to approximately 85%-90% confluency. On the day of experiment, EMEM medium was prepared with the appropriate concentrations of stimulants and/or inhibitors and added to the cells. Following the period of culture (usually 6 or 24 hours), the cells were washed and lysed, and total RNA was purified using PureLink™ RNA Mini Kit (Thermo Fisher Cat. No. 12183018A). The purified total RNA was used to generate cDNA using a High-Capacity cDNA Reverse Transcription Kit (Applied Biosystems, Cat. No. 4368814). Gene expression was analyzed using the qPCR method with a BioRad My iQ™ Detection system, and compared to the expression of the GAPDH housekeeping gene.

[3] = system: human intestinal organoids (HIO); experiment: UPR-associated and pro-Th2 cytokine gene expression in human intestinal organoids injected with palmitate ± metformin or TUDCA; assay type: cell-based; details: lumen injection, FIG. 6A-6B
Method: HIO were produced from human peripheral blood pluripotent stem cells having a single UPR-associated gene deleted by CRISPR/Cas9. Applicant injected the lumens of HIO with culture medium or palmitate to induce increased UPR-associated and pro-Th2 cytokine gene expression, and further injected the HIO lumens with metformin or TUDCA. mRNA levels for the UPR-associated and pro-Th2 cytokine genes were determined by real-time PCR.

CACO-2 cells [4] = experiment: UPR-related and pro-Th2 cytokine gene expression in CACO-2 cells cultured with lipid-free peanut extract ± metformin; assay type: cell-based, human; details: CACO-2 cells with peanut extract, treated with metformin
Method: Because the UPR can be induced by multiple mechanisms that are associated with cell stress, including mechanisms that are not associated with lipids, Applicant investigated the ability of aqueous extracts of allergenic foods other than eggs and milk to induce UPR-associated and pro-Th2 cytokine gene expression, and the ability of metformin to suppress these responses. CACO-2 cells were cultured for 24 hours with medium alone or with a lipid-free peanut extract±metformin. mRNA was reverse-transcribed and gene expression was determined by real time PCR.
CACO-2 cells were obtained from the American Type Culture Collection (ATCC), catalog number HTB-37. These cells were grown in ATCC-formulated Eagle's Minimum Essential Medium (EMEM) (Cat. No. 30-2003), supplemented with fetal bovine serum (FBS) to a final concentration of 20% (ATCC® Cat. No. 30-2020) and Gibco antibiotic-antimycotic mixture. The cells were cultured in 6-well, 12-well, or 24-well culture plates to approximately 85%-90% confluency.
On the day of experiment, EMEM medium was prepared with the appropriate concentrations of stimulants and/or inhibitors and added to the cells. […] Gene expression was analyzed using the qPCR method with a BioRad My iQ™ Detection system, and compared to the expression of the GAPDH housekeeping gene.

CACO-2 cells [5] = experiment: Pro-Th2 cytokine protein production by CACO-2 cells (immunoprecipitation and Western blot); assay type: cell-based, human; details: 24 hr, Western blot, FIG. 4
Method: CACO-2 cells were cultured for 24 hr±palmitate or EYP. Cell lysates were prepared and normalized by protein concentration and direct α/β-tubulin Western blot. Lysates were serially incubated with anti-IL-25+protein G beads, anti-IL-33+protein G beads, and anti-TSLP+protein G beads. Laemmli buffer eluates from beads were analyzed by electrophoresis on a 4-20% polyacrylamide gel, blotted onto a PVDF membrane, and visualized by incubation with biotinylated anti-IL-25, anti-IL-33, or anti-TSLP mAb, followed by streptavidin-peroxidase and ECL WB substrate.

[6] = summary statement of Applicant's results
[7] = 24 hours, real time PCR, FIG. 1

| SMILES | established food allergy (BALB/c mice; [6]) | suppression of EYP-, HC-, MCT- and palmitate-induced expression of the pro-Th2 cytokines (CACO-2 cells [1]; [7]) | intestinal UPR-related gene expression (except for BiP and ATF6) (BALB/c mice; established egg allergy) | intestinal pro-Th2 cytokine expression (BALB/c mice; established egg allergy) | hypothermia (BALB/c mice) | mouse mast cell protease 1 (MMCP1) response (BALB/c mice) | small intestinal UPR-related gene expression (except ATF6) (BALB/c mice) | small intestinal pro-Th2 cytokine gene expression (BALB/c mice) | palmitate-induced UPR-associated and pro-Th2 cytokine gene expression [3] | other results |
| --- | --- | --- | --- | --- | --- | --- | --- | --- | --- | --- |
| O=C(O)CCCc1ccccc1 [4-PBA, 4-phenylbutyrate] | suppresses | strong suppression | – | – | – | – | – | – | – | – |
| CCCCCCCCCCC[C@@H](C[C@@H]1OC(=O)[C@H]1CCCCCC)OC(=O)[C@H](CC(C)C)NC=O [Orlistat] | – | – | – | – | – | – | – | – | – | UPR-related or pro-Th2 gene expression by peanut extract (CACO-2 cells [2]): no effect; egg yolk plasma-induced UPR-associated and pro-Th2 cytokine gene expression (CACO-2 cells [2]): suppressed |
| C[C@H](CCC(=O)NCCS(=O)(=O)O)[C@H]1CC[C@H]2[C@@H]3[C@@H](O)C[C@@H]4C[C@H](O)CC[C@]4(C)[C@H]3CC[C@]12C [TUDCA, tauroursodeoxycholic acid] | suppresses | strong suppression | suppressed | suppressed | suppression | suppression | suppression | suppression | suppressed | – |
| CN(C)C(=N)N=C(N)N [metformin] | suppresses | strong suppression | suppressed | suppressed | suppression | suppression | suppression | suppression | suppressed | Pro-Th2 cytokine and UPR-related gene expression in skin (BALB/c mice; established egg allergy, egg yolk plasma, 1 g/kg/day or 2 g/kg/day oral, FIG. 16A): inhibited; Pro-Th2 cytokine and UPR-related gene expression in lung (BALB/c mice; established egg allergy, egg yolk plasma, 1 g/kg/day or 2 g/kg/day oral, FIG. 16B): inhibited; development of food allergy (BALB/c mice; [6]): suppresses; expression of UPR-related genes (CACO-2 cells [4]; FIG. 2 A): reduced expression; expression of pro-Th2 cytokine genes (CACO-2 cells [4]; FIG. 2 B): reduced expression; pro-Th2 cytokine gene induction by egg and milk lipid fractions and aqueous extracts of peanuts, walnut, codfish (CACO-2 cells [1]; summary, every allergen tested): suppresses pro-Th2 cytokine gene induction in every case |
| CCCCCCCCCCCCCCCC(=O)[O-].[Na+] [sodium palmitate] | – | – | – | – | – | – | – | – | – | pro-Th2 cytokine protein expression (IL-25, IL-33, TSLP) (CACO-2 cells [5]): increase; induction of expression of the pro-Th2 cytokines (CACO-2 cells [1]; 24 hours, stimulant alone, real time PCR, FIG. 1): induced increased expression; UPR-dependent induction of pro-Th2 cytokine genes [3]: stimulated |
